Data as given in patent US11931374B2, “Adenosine receptor modulators for the treatment of circadian rhythm disorders” (OXFORD UNIVERSITY INNOVATION LIMITED, priority 2016, dated 2024).

What was measured:
[1] = tested on: Per2::Luc U2OS cells; experiment: Per2::Luc cell based circadian assay; conditions: for circadian period length: Per2::Luc U2OS cells, dose response
Protocol: U2OS cells stably transfected with a Per2::Luc reporter were cultured in DMEM supplemented with 10% FBS. For siRNA- and drug-based experiments, cells were seeded at 5,000 per well into white 384 well plates and transfected with 20 nM siRNA the next day. 2 days later, the cells were synchronized with 100 nM dexamethasone and the medium was replaced with phenol-red free DMEM supplemented with B-27 and 100 µM luciferin potassium salt, requisite drugs formulated in DMSO as a 1000× stock was added, and then sealed. Per2::Luc rhythms were recorded from a BMG Labtech Fluostar Omega plate reader maintained at 36° C. and readings taken from each well every hour. Data were then analysed using either Multicycle or Brass rhythm analysis software.
Period2::Luciferase (Per2::Luc) stable U2OS transfects were cultured, as described above. A Greiner Bio-One 384 Well Plate (Polystyrene, F-bottom), was then seeded at 6000 cells per 50 μl well. Following a 24 hour period, the cells were treated with 0.1% dexamethasone, a glucocorticoid hormone analogue known to reset intracellular circadian rhythms, for 1 hour. Subsequently, the dexamethasone-containing medium was removed, the cells were washed with PBS and luciferin and test drug containing medium was added. The cells were then assayed for luminescence over a period of 96 hours in the BMG FLUOstar OPTIMA Microplate Reader to observe the periodicity and amplitude of the luminescence values.

[2] = tested on: Per1/2; experiment: Sleep deprivation, Per1/2 expression within the SCN; format: in vivo; conditions: sleep deprivation decreases Per1/2 expression
[3] = tested on: Per1/2; experiment: Sleep deprivation, Per1/2 within the cortex; format: in vivo; conditions: data not shown
[4] = tested on: STAR-PROM plasmid library; experiment: STAR-PROM transcription factor screening in U2OS cells; format: cell-based; conditions: siFos
Protocol: This was conducted as previously reported in Gerber et al., Cell. […] Briefly, U2OS cells were cultured in 6-well plates and transfected with 1 ug of the STAR-PROM plasmid library (library structure as in above reference). RNA was extracted at set time points and sequenced for the barcoded luciferase constructs and analysed with Galaxy (https://use.galaxy.org).

[5] = tested on: intracellular levels of cAMP; experiment: cAMP GloSensor assay in U2OS cells; format: cell-based
Protocol: The GloSensor™ cAMP Assay (Promega) was used for detecting changes in the intracellular levels of cAMP. Initially, a Greiner Bio-One 96 Well Plate (white, TC treated) was seeded at 8000 cells per 100 μl well, as described above. After 24 hours, the cells were transfected with the pGloSensor™ cAMP Plasmid using the Viafect transfection reagent as above. Between 24 and 48 hours later, allowing for the accumulation of the biosensor, the medium in the 96 well plate was changed to C02-Independent Medium supplemented with GlutaMAX™ (Life Technologies), 10% fetal bovine serum and 2% GloSensor™ cAMP Reagent. The plate was then stood for 2 hours at room temperature to equilibrate. Following the incubation period, the cells were treated with relevant drugs and their luminescence values were measured after 20 minutes in the BMG FLUOstar OPTIMA Microplate Reader, with forskolin as a positive control, and DMSO as a negative control.

[6] = tested on: CRE::Luc reporter; experiment: CRE-Luc luciferase assay in U2OS cells; format: cell-based
Protocol: At 60-80% confluence and >90% viability, the U2OS cells in the T-75 flask were washed twice with 6 ml phosphate-buffered saline (PBS) and subsequently treated with 4 ml of TrypLE™ Express trypsin replacement solution for 10 minutes. A Greiner Bio-One 96 Well Plate (white, TC treated), was then seeded at 8000 cells per well. Following 24 hours, the cells were transfected at 50-70% confluency with CRE-luc Vector generated in-house with Viafect transfection reagent at 1:4 ratio (100 ng DNA/well) following manufacturers recommendations.
24 hours after transfection, the medium in the 96 well plate was changed to a serum-free medium with 1 mM luciferin. The cells were then incubated in serum starvation conditions for 6-8 hours, this was optimised to yield the greatest signal strength and lowest noise when assayed with forskolin control. Following the incubation period, the CRE-Luc U2OS cells were treated with the appropriate drug and their luminescence values were measured after 6 hours in the BMG FLUOstar OPTIMA Microplate Reader. […] Unless stated otherwise, forskolin was used as a positive control, and 1% DMSO was used as a negative control.

[7] = tested on: Per1; experiment: Per1 mRNA levels in U2OS cells by qPCR; format: cell-based; conditions: U2OS cells, qPCR, concentration not given
Protocol: (§1) Total RNA was extracted using the microRNeasy column method (Qiagen, Hilden, Germany). Quality and quantity of RNA were measured using an Agilent Bioanalyzer and a Nanodrop1000 (Thermo Fisher Scientific, Waltham, MA USA), respectively.
(§2) RNA samples were prepared as described for microarray hybridisation. cDNA was synthesized with a qScript cDNA synthesis kit (Quanta Biosciences, Gaithersburg, MD), and quantitative PCR (qPCR) was conducted with Sybr green I and an SDS7700 thermal cycler (Applied Biosystems, Foster City, CA). Relative quantification of transcript levels was done as described previously (Peirson et al., Nucleic Acids Res. 2003 Jul. 15; 31(14):e73.). The geometric mean of a minimum of three housekeeping genes was used for normalization (Gapdh, ActB, GusB and Rps9 for example).
(§3) Cells from the U2OS (HTB-96) line were obtained, tested and identified. The cells were cultured in T-75 flasks, in Dulbecco's modified Eagle medium (DMEM) supplemented with 10% foetal bovine serum (FBS) and 1% penicillin-streptomycin (P/S) at 37° C. in a humidified atmosphere at 5% CO2. The cells were subcultured every 2 to 4 days in a 1:2 to 1:6 ratio, in accordance with the ATCC recommendations. The cells were counted using a haemocytometer, and their viability in a culture was maintained at above 95%, measured with a Presto Blue exclusion assay according to the manufacturer's specifications. Cells were transfected with siRNAs (typically at 50 nM concentrations, sequences as previously listed), the CRE::Luc (pGL4.29[luc2P/CRE/Hygro] Vector, encoding Luc2P […] under the control of a strong cAMP response element (CRE) promoter containing 3 CRE elements within its sequence; Promega) reporter vector or cAMP-GLOSensor plasmid (Promega) as per manufacturer's instructions using either Lipofectamine RNAimax (Invitrogen) or Lipofectamine3000 (Invitrogen).

[8] = tested on: Per2; experiment: Per2 mRNA levels in U2OS cells by qPCR; format: cell-based; conditions: U2OS cells, qPCR, concentration not given
Protocol: as §1, §2, §3

[9] = tested on: C57Bl/6 mice; experiment: Phase shifting of circadian activity by drug (running wheel); format: in vivo; conditions: administered at CT22, absence of a light pulse
Protocol: Animals were housed under a reversed 12:12 LD cycle (400 lux from white LED lamps) with food and water ad libitum. For phase-shifting studies, C57Bl/6 mice were maintained on running wheels in light tight chambers on a 12:12 LD cycle (400 lux from white LED lamps) and injected with drug at the indicated time points. The drugs were formulated in a vehicle consisting of 5% Koliphor-HS15 (Sigma-Aldrich, UK) 5% Cyclodextran (Sigma-Aldrich, UK) in 0.9% saline. This vehicle was warmed to 37° C. and the indicated drugs kept at a 100× stock in DMSO and mixed at the appropriate concentration to be administered at approximately 300 ul intraperitoneal injection (n=6 to 10). Where the time point of injection was in the dark, the procedure was conducted under dim red light. Where measuring phase-shifting, the mice were then placed in DD and allowed to free run for 14 days in DD, running wheel activity data was collected and analysed on Clocklab (Actimetrics, Wilmette, IL). For jet-lag studies, mice were maintained on running wheels in light tight chambers on a 12:12 LD cycle (400 lux from white LED lamps) and injected with drugs as above at ZT6 and the LD cycle was shifted 6 hours in advance. The onset of activity on each day was used to measure phase relative to the LD cycle.
Phase Shifting: C57Bl/6 male mice (80 days or older) were maintained on running wheels in light tight chambers on a 12:12 LD cycle (100 lux from white LED lamps) on stable entrainment, were released in complete darkness. At set times as indicated in the experiments, the animals received an intraperitoneal injection (300 ul) of drug constituted in sterile saline with 5% Cyclodextrin (Sigma-Aldrich) and 5% Koliphor (Sigma-Aldrich) and then allowed to free run in DD, running wheel activity data were collected and analysed on Clocklab (Actimetrics, Wilmette, IL).

[10] = tested on: C57Bl/6 mice; experiment: Phase shifting of circadian activity in response to a light pulse with drug; format: in vivo; conditions: 1 mg/kg intraperitoneal before 30 min 400 lux light pulse at CT22
Protocol: Animals were maintained in a 12 h light (white) 12 h dark (grey) cycle and vehicle was administered just before a 30 min 400 lux light pulse (white bar) at time CT 22 (or 10 hours after lights off). All light cues were then removed to allow the animals free running clock to express. A gap in the lines on the day after the light pulse was administered indicates a phase shift.
Animals were maintained in a 12 h light (white) 12 h dark (grey) cycle and IB-MECA (1 mg/kg) was administered just before a 30 min 400 lux light pulse (white bar) at time CT 22 (or 10 hours after lights off).
Animals were housed under a reversed 12:12 LD cycle (400 lux from white LED lamps) with food and water ad libitum. For phase-shifting studies, C57Bl/6 mice were maintained on running wheels in light tight chambers on a 12:12 LD cycle (400 lux from white LED lamps) and injected with drug at the indicated time points. The drugs were formulated in a vehicle consisting of 5% Koliphor-HS15 (Sigma-Aldrich, UK) 5% Cyclodextran (Sigma-Aldrich, UK) in 0.9% saline. […] Where measuring phase-shifting, the mice were then placed in DD and allowed to free run for 14 days in DD, running wheel activity data was collected and analysed on Clocklab (Actimetrics, Wilmette, IL). […]

CCn1c(=O)c2c(nc(/C=C/c3ccc(OC)c(OC)c3)n2C)n(CC)c1=O [Istradefylline, 8-[(E)-2-(3,4-dimethoxyphenyl)vinyl]-1,3-diethyl-7-methyl-3,7-dihydro-1H-purine-2,6-dione]
circadian period length [1]: increased circadian period length in a dose dependent manner

Nc1nc(NCCc2ccc(O)cc2)nc2nc(-c3ccco3)nn12 [ZM241385, 4-(2-(7-amino-2-(furan-2-yl)-[1,2,4]triazolo[1,5-a][1,3,5]triazin-5-ylamino)ethyl)phenol]
circadian period length [1]: increased circadian period length in a dose dependent manner

CCNC(=O)[C@H]1O[C@@H](n2cnc3c(N)nc(NCCc4ccc(CCC(=O)O)cc4)nc32)[C@H](O)[C@@H]1O.Cl [CGS21680, 3-[4-[2-[[6-amino-9-[(2R,3R,4S,5S)-5-(ethylcarbamoyl)-3,4-dihydroxy-oxolan-2-yl]purin-2-yl]amino]ethyl]phenyl]propanoic acid]
Per1/2 expression within the SCN [2]: increased Per1/2 expression

O=C(Cc1ccccc1)Nc1nc2ccc(Cl)cc2c2nc(-c3ccco3)nn12 [MRS1220, 9-Chloro-2-(2-furanyl)-5-((phenylacetyl)amino)-[1,2,4]triazolo[1,5-c]quinazoline]
circadian period length [1]: increased circadian period length in a dose dependent manner

CC#C[C@]1(O)CC[C@H]2[C@@H]3CCC4=CC(=O)CCC4=C3[C@@H](c3ccc(N(C)C)cc3)C[C@@]21C [mifepristone]
sleep deprivation-induced increase of Per1/2 within the cortex [3]: blunted this response

Nc1nc2ccc(Cl)cc2c2nc(-c3ccco3)nn12 [CGS15943, 9-chloro-2-(furan-2-yl)-[1,2,4]triazolo[1,5-c]quinazolin-5-amine]
period lengthening effect after knockdown of adenosine receptors ([1]; A1, A2A, A2B adenosine receptors in U2OS cells knocked down using siRNA): lost
response of clone3 after siRNA-mediated silencing of Fos [4]: significantly reduced

CNC(=O)[C@H]1O[C@@H](n2cnc3c(NCc4cccc(I)c4)ncnc32)[C@H](O)[C@@H]1O [IB-MECA, 1-Deoxy-1-[6-[((3-Iodophenyl)methyl)amino]-9H-purin-9-yl]-N-methyl-β-D-ribofuranuronamide]
circadian period length [1]: dose-dependent period length increases
amplitude of the cellular clock ([1]; Per2::Luciferase construct, U2OS cells): increases in period and amplitude
cAMP levels [5]: concurrent increase
CREB-driven transcription (CRE::Luc reporter) [6]: activation
Per1 mRNA levels / expression [7]: elevated
Per2 mRNA levels / expression [8]: elevated
phase shift of circadian activity [9]: elicited a phase delay
phase advance induced by light pulse [10]: phase advance was lost
